What was measured:
barnyardgrass [1] = assay: Test A postemergence; format: in vivo, Echinochloa crusgalli; conditions: postemergence, 10 days; for Barnyardgrass plant response rating: 125 g ai/ha, 0 to 100 scale, 0 no effect, 100 complete control; for Plant response rating, Barnyardgrass: 500 g ai/ha, visual injury, 0 to 100 scale (0 no effect, 100 complete control)
Outline: (§1)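 Loam/sand soil; pre-em directed soil spray at planting, post-em spray at 1–2 leaf (2–10 cm). Compound in non-phytotoxic solvent + surfactant. Greenhouse 10 d; visual injury vs untreated, 0 = no effect, 100 = complete control.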

barnyardgrass [2] = assay: Test A preemergence; format: in vivo, Echinochloa crusgalli; conditions: visual injury after 10 days, 0 to 100 scale, 0 is no effect, 100 is complete control
Outline: as §1

oat, wild [3] = assay: Test A preemergence; format: in vivo, Avena fatua; conditions: 0 to 100 scale
Outline: as §1

ragweed [4] = assay: Test A postemergence; format: in vivo, Ambrosia artemisiifolia; conditions: postemergence, 10 days; for Ragweed plant response rating: 125 g ai/ha, 0 to 100 scale, 0 no effect, 100 complete control; for Plant response rating, Ragweed: 500 g ai/ha, visual injury, 0 to 100 scale (0 no effect, 100 complete control)
Outline: as §1

ryegrass, Italian [5] = assay: Test A preemergence; format: in vivo, Lolium multiflorum; conditions: 0 to 100 scale
Outline: as §1

wheat [6] = assay: Test A preemergence; format: in vivo, Triticum aestivum; conditions: 0 to 100 scale
Outline: as §1

sedge, umbrella = assay: Test B flooded paddy test; format: in vivo, Cyperus difformis; conditions: 250 g ai/ha, Flood, 13 days, 0 to 100 scale (0 no effect, 100 complete control)
Outline: (§2)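 Percent weed or crop control, judged by eye on a 0–100 scale 13 days post-treatment, reflects compound added to a 3 cm flood maintained over 2-leaf plants in the greenhouse. Missing entries are marked with a dash.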

soybean [7] = assay: Test A postemergence; format: in vivo, Glycine max; conditions: postemergence, 10 days; for Soybean plant response rating: 125 g ai/ha, 0 to 100 scale, 0 no effect, 100 complete control; for Plant response rating, Soybean: 500 g ai/ha, visual injury, 0 to 100 scale (0 no effect, 100 complete control)
Outline: as §1

galium = assay: Test A postemergence; format: in vivo, Galium aparine; conditions: postemergence, 10 days; for Galium plant response rating: 125 g ai/ha, 0 to 100 scale, 0 no effect, 100 complete control; for Plant response rating, Galium: 500 g ai/ha, visual injury, 0 to 100 scale (0 no effect, 100 complete control)
Outline: as §1

blackgrass [8] = assay: Test A postemergence; format: in vivo, Alopecurus myosuroides; conditions: postemergence, 10 days; for Blackgrass plant response rating: 125 g ai/ha, 0 to 100 scale, 0 no effect, 100 complete control; for Plant response rating, Blackgrass: 500 g ai/ha, visual injury, 0 to 100 scale (0 no effect, 100 complete control)
Outline: as §1

ragweed [9] = assay: Test A preemergence; format: in vivo, Ambrosia artemisiifolia; conditions: 0 to 100 scale
Outline: as §1

soybean [10] = assay: Test A preemergence; format: in vivo, Glycine max; conditions: 0 to 100 scale
Outline: as §1

wheat [11] = assay: Test A postemergence; format: in vivo, Triticum aestivum; conditions: postemergence, 10 days; for Wheat plant response rating: 125 g ai/ha, 0 to 100 scale, 0 no effect, 100 complete control; for Plant response rating, Wheat: 500 g ai/ha, visual injury, 0 to 100 scale (0 no effect, 100 complete control)
Outline: as §1

horseweed = assay: Test A postemergence; format: in vivo, Erigeron canadensis; conditions: postemergence, 10 days; for Horseweed plant response rating: 125 g ai/ha, 0 to 100 scale, 0 no effect, 100 complete control; for Plant response rating, Horseweed: 500 g ai/ha, visual injury, 0 to 100 scale (0 no effect, 100 complete control)
Outline: as §1

blackgrass [12] = assay: Test A preemergence; format: in vivo, Alopecurus myosuroides; conditions: 0 to 100 scale
Outline: as §1

corn [13] = assay: Test A preemergence; format: in vivo, Zea mays; conditions: 0 to 100 scale
Outline: as §1

pigweed, palmer [14] = assay: Test A preemergence; format: in vivo, Amaranthus palmeri; conditions: 0 to 100 scale
Outline: as §1

barnyardgrass [15] = assay: Test B flooded paddy test; format: in vivo, Echinochloa crus-galli; conditions: 250 g ai/ha, Flood, 13 days, 0 to 100 scale (0 no effect, 100 complete control)
Outline: as §2

kochia [16] = assay: Test A postemergence; format: in vivo, Bassia scoparia; conditions: postemergence, 10 days; for Kochia plant response rating: 125 g ai/ha, 0 to 100 scale, 0 no effect, 100 complete control; for Plant response rating, Kochia: 500 g ai/ha, visual injury, 0 to 100 scale (0 no effect, 100 complete control)
Outline: as §1

oat, wild [17] = assay: Test A postemergence; format: in vivo, Avena fatua; conditions: postemergence, 10 days; for Oat, Wild plant response rating: 125 g ai/ha, 0 to 100 scale, 0 no effect, 100 complete control; for Plant response rating, Oat, Wild: 500 g ai/ha, visual injury, 0 to 100 scale (0 no effect, 100 complete control)
Outline: as §1

ryegrass, Italian [18] = assay: Test A postemergence; format: in vivo, Lolium multiflorum; conditions: postemergence, 10 days; for Ryegrass, Italian plant response rating: 125 g ai/ha, 0 to 100 scale, 0 no effect, 100 complete control; for Plant response rating, Ryegrass, Italian: 500 g ai/ha, visual injury, 0 to 100 scale (0 no effect, 100 complete control)
Outline: as §1

rice = assay: Test B flooded paddy test; format: in vivo, Oryza sativa; conditions: 250 g ai/ha, Flood, 13 days, 0 to 100 scale (0 no effect, 100 complete control)
Outline: as §2

foxtail, giant [19] = assay: Test A postemergence; format: in vivo, Setaria faberi; conditions: postemergence, 10 days; for Foxtail, Giant plant response rating: 125 g ai/ha, 0 to 100 scale, 0 no effect, 100 complete control; for Plant response rating, Foxtail, Giant: 500 g ai/ha, visual injury, 0 to 100 scale (0 no effect, 100 complete control)
Outline: as §1

pigweed, palmer [20] = assay: Test A postemergence; format: in vivo, Amaranthus palmeri; conditions: postemergence, 10 days; for Pigweed, Palmer plant response rating: 125 g ai/ha, 0 to 100 scale, 0 no effect, 100 complete control; for Plant response rating, Pigweed, Palmer: 500 g ai/ha, visual injury, 0 to 100 scale (0 no effect, 100 complete control)
Outline: as §1

corn [21] = assay: Test A postemergence; format: in vivo, Zea mays; conditions: postemergence, 10 days; for Corn plant response rating: 125 g ai/ha, 0 to 100 scale, 0 no effect, 100 complete control; for Plant response rating, Corn: 500 g ai/ha, visual injury, 0 to 100 scale (0 no effect, 100 complete control)
Outline: as §1

kochia [22] = assay: Test A preemergence; format: in vivo, Bassia scoparia; conditions: 0 to 100 scale
Outline: as §1

foxtail, giant [23] = assay: Test A preemergence; format: in vivo, Setaria faberi; conditions: 0 to 100 scale
Outline: as §1

ducksalad = assay: Test B flooded paddy test; format: in vivo, Heteranthera limosa; conditions: 250 g ai/ha, Flood, 13 days, 0 to 100 scale (0 no effect, 100 complete control)
Outline: as §2

[24] = 500 g ai/ha, visual injury after 10 days, 0 is no effect, 100 is complete control

Cc1cccc2c1OC(C(F)(F)F)CN2C(=O)c1ccnc(-n2cncn2)c1 (centres unmarked) [Compound 144]
10: Plant response rating, Pigweed, Palmer (pigweed, palmer [14]; 125 g ai/ha) | Kochia plant response rating (kochia [16])
50: Plant response rating, Barnyardgrass (barnyardgrass [2]; 125 g ai/ha) | Plant response rating, Wheat (wheat [6]; [24]) | Plant response rating, Blackgrass (blackgrass [12]; 125 g ai/ha) | Plant response rating, Corn (corn [13]; [24]) | Ryegrass, Italian plant response rating (ryegrass, Italian [18])
60: Plant response rating, Oat, Wild (oat, wild [3]; [24]) | Plant response rating, Sedge, Umbrella (sedge, umbrella) | Plant response rating, Wheat (wheat [11]) | Plant response rating, Kochia (kochia [16]) | Plant response rating, Kochia (kochia [22]; [24])
80: Plant response rating, Blackgrass (blackgrass [12]; [24]) | Foxtail, Giant plant response rating (foxtail, giant [19])
30: Plant response rating, Oat, Wild (oat, wild [3]; 125 g ai/ha) | Plant response rating, Wheat (wheat [6]; 125 g ai/ha) | Plant response rating, Ragweed (ragweed [9]; [24]) | Plant response rating, Corn (corn [13]; 125 g ai/ha)
90: Plant response rating, Barnyardgrass (barnyardgrass [1]) | Plant response rating, Barnyardgrass (barnyardgrass [2]; 500 g ai/ha) | Plant response rating, Ryegrass, Italian (ryegrass, Italian [5]; 125 g ai/ha) | Plant response rating, Blackgrass (blackgrass [8]) | Plant response rating, Ryegrass, Italian (ryegrass, Italian [18]) | Plant response rating, Foxtail, Giant (foxtail, giant [19])
20: Barnyardgrass plant response rating (barnyardgrass [1]) | Wheat plant response rating (wheat [11]) | Pigweed, Palmer plant response rating (pigweed, palmer [20])
65: Plant response rating, Ducksalad (ducksalad)
0: Ragweed plant response rating (ragweed [4]) | Plant response rating, Ragweed (ragweed [4]) | Plant response rating, Ragweed (ragweed [9]; 125 g ai/ha) | Plant response rating, Soybean (soybean [10]; 125 g ai/ha) | Horseweed plant response rating (horseweed) | Plant response rating, Horseweed (horseweed) | Plant response rating, Barnyardgrass (barnyardgrass [15]) | Oat, Wild plant response rating (oat, wild [17]) | Plant response rating, Rice (rice) | Plant response rating, Kochia (kochia [22]; 125 g ai/ha)
100: Plant response rating, Ryegrass, Italian (ryegrass, Italian [5]; [24]) | Soybean plant response rating (soybean [7]) | Plant response rating, Soybean (soybean [7]) | Plant response rating, Galium (galium) | Plant response rating, Soybean (soybean [10]; [24]) | Plant response rating, Pigweed, Palmer (pigweed, palmer [14]; [24]) | Plant response rating, Foxtail, Giant (foxtail, giant [23]; 125 g ai/ha) | Plant response rating, Foxtail, Giant (foxtail, giant [23]; [24])
70: Galium plant response rating (galium) | Blackgrass plant response rating (blackgrass [8]) | Plant response rating, Corn (corn [21])
40: Plant response rating, Oat, Wild (oat, wild [17]) | Plant response rating, Pigweed, Palmer (pigweed, palmer [20]) | Corn plant response rating (corn [21])

CC(C)c1ncn(-c2ccc(OCC(F)(F)F)c(C(=O)N3C[C@H](C)Oc4c(Cl)cccc43)c2)n1 [Compound 141]
25: Plant response rating, Barnyardgrass (barnyardgrass [15])
0: Plant response rating, Ragweed (ragweed [9]; 125 g ai/ha) | Horseweed plant response rating (horseweed) | Plant response rating, Horseweed (horseweed) | Plant response rating, Kochia (kochia [22]; 125 g ai/ha)
70: Plant response rating, Barnyardgrass (barnyardgrass [1]) | Plant response rating, Barnyardgrass (barnyardgrass [2]; 125 g ai/ha) | Plant response rating, Blackgrass (blackgrass [12]; [24]) | Pigweed, Palmer plant response rating (pigweed, palmer [20])
10: Wheat plant response rating (wheat [11]) | Plant response rating, Corn (corn [13]; 125 g ai/ha) | Plant response rating, Corn (corn [13]; [24]) | Oat, Wild plant response rating (oat, wild [17]) | Plant response rating, Rice (rice)
80: Plant response rating, Oat, Wild (oat, wild [3]; [24]) | Galium plant response rating (galium) | Plant response rating, Blackgrass (blackgrass [8]) | Plant response rating, Soybean (soybean [10]; 125 g ai/ha) | Plant response rating, Soybean (soybean [10]; [24]) | Kochia plant response rating (kochia [16])
50: Plant response rating, Ragweed (ragweed [9]; [24]) | Plant response rating, Kochia (kochia [22]; [24])
95: Plant response rating, Sedge, Umbrella (sedge, umbrella)
90: Plant response rating, Barnyardgrass (barnyardgrass [2]; 500 g ai/ha) | Plant response rating, Ryegrass, Italian (ryegrass, Italian [5]; 125 g ai/ha) | Plant response rating, Kochia (kochia [16]) | Plant response rating, Ryegrass, Italian (ryegrass, Italian [18]) | Corn plant response rating (corn [21]) | Plant response rating, Corn (corn [21]) | Plant response rating, Foxtail, Giant (foxtail, giant [23]; 125 g ai/ha)
30: Barnyardgrass plant response rating (barnyardgrass [1]) | Ragweed plant response rating (ragweed [4]) | Plant response rating, Wheat (wheat [6]; [24]) | Blackgrass plant response rating (blackgrass [8]) | Ryegrass, Italian plant response rating (ryegrass, Italian [18]) | Plant response rating, Ducksalad (ducksalad)
60: Plant response rating, Oat, Wild (oat, wild [3]; 125 g ai/ha) | Plant response rating, Ragweed (ragweed [4]) | Foxtail, Giant plant response rating (foxtail, giant [19])
20: Plant response rating, Wheat (wheat [6]; 125 g ai/ha) | Plant response rating, Wheat (wheat [11]) | Plant response rating, Blackgrass (blackgrass [12]; 125 g ai/ha) | Plant response rating, Oat, Wild (oat, wild [17])
100: Plant response rating, Ryegrass, Italian (ryegrass, Italian [5]; [24]) | Soybean plant response rating (soybean [7]) | Plant response rating, Soybean (soybean [7]) | Plant response rating, Galium (galium) | Plant response rating, Pigweed, Palmer (pigweed, palmer [14]; 125 g ai/ha) | Plant response rating, Pigweed, Palmer (pigweed, palmer [14]; [24]) | Plant response rating, Foxtail, Giant (foxtail, giant [19]) | Plant response rating, Pigweed, Palmer (pigweed, palmer [20]) | Plant response rating, Foxtail, Giant (foxtail, giant [23]; [24])
